Test system: yeast genes (expressed mRNA)
Assay: DNA chip measurement of expressed mRNA of yeast genes after culture with a toxic chemical substance
Type: cell-based, Saccharomyces cerevisiae S288C
Conditions: for level of expressed mRNA in the presence of chemical substance / level in the absence of chemical substance: cultured two hours with the chemical substance; for The level of expressed mRNA in the presence of chemical substance/The level of expressed mRNA in the absence of chemical substance: cultured two hours with substance
In short: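 Each expression value is the mRNA level in chemical-treated yeast divided by that in untreated yeast, from Cy3/Cy5 fluorescence on a whole-genome chip. Log-phase S288C cells in YPD at 25° C had received a sublethal, growth-inhibiting dose for two hours. Intensity denotes control expression relative to the all-gene mean.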

`CCCCCCCCCCCCc1ccc(S(=O)(=O)[O-])cc1.[Na+]` [(17), Sodium dodecylbenzosulfonate] was tested, and the “The level of expressed mRNA in the presence of chemical substance/The level of expressed mRNA in the absence of chemical substance, yeast gene YBR036C” value (gene YBR036C, Metabolism protein genes, DNA chip fluorescence ratio) was 2.1, the “The level of expressed mRNA in the presence of chemical substance/The level of expressed mRNA in the absence of chemical substance, yeast gene YBR298C” value (gene YBR298C, Metabolism protein genes, DNA chip fluorescence ratio) was 0.9 and the “The level of expressed mRNA in the presence of chemical substance/The level of expressed mRNA in the absence of chemical substance, yeast gene YDL067C” value (gene YDL067C (mitochondria-located protein gene), yeast cultured two hours with chemical substance, DNA chip fluorescence ratio to control) was 1.2. The “The level of expressed mRNA in the presence of chemical substance/The level of expressed mRNA in the absence of chemical substance, yeast gene YDL078C” value (gene YDL078C, Metabolism protein genes, DNA chip fluorescence ratio) was 1.1, the “The level of expressed mRNA in the presence of chemical substance/The level of expressed mRNA in the absence of chemical substance, yeast gene YDL215C” value (gene YDL215C, Metabolism protein genes, DNA chip fluorescence ratio) was 1.1 and the “The level of expressed mRNA in the presence of chemical substance/The level of expressed mRNA in the absence of chemical substance, yeast gene YDR079W” value (gene YDR079W (mitochondria-located protein gene), yeast cultured two hours with chemical substance, DNA chip fluorescence ratio to control) was 1.1. For the same compound, the “The level of expressed mRNA in the presence of chemical substance/The level of expressed mRNA in the absence of chemical substance, yeast gene YDR297W” value (gene YDR297W, Metabolism protein genes, DNA chip fluorescence ratio) was 1.9, the “The level of expressed mRNA in the presence of chemical substance/The level of expressed mRNA in the absence of chemical substance, yeast gene YDR387C” value (gene YDR387C, Metabolism protein genes, DNA chip fluorescence ratio) was 1.2 and the “The level of expressed mRNA in the presence of chemical substance/The level of expressed mRNA in the absence of chemical substance, yeast gene YGL035C” value (gene YGL035C, Metabolism protein genes, DNA chip fluorescence ratio) was 0.9. For the same compound, the “The level of expressed mRNA in the presence of chemical substance/The level of expressed mRNA in the absence of chemical substance, yeast gene YGR062C” value (gene YGR062C (mitochondria-located protein gene), yeast cultured two hours with chemical substance, DNA chip fluorescence ratio to control) was 0.9, the “The level of expressed mRNA in the presence of chemical substance/The level of expressed mRNA in the absence of chemical substance, yeast gene YGR287C” value (gene YGR287C, Metabolism protein genes, DNA chip fluorescence ratio) was 1.0 and the “The level of expressed mRNA in the presence of chemical substance/The level of expressed mRNA in the absence of chemical substance, yeast gene YJL070C” value (gene YJL070C, Metabolism protein genes, DNA chip fluorescence ratio) was 1.1. The “The level of expressed mRNA in the presence of chemical substance/The level of expressed mRNA in the absence of chemical substance, yeast gene YJL096W” value (gene YJL096W (mitochondria-located protein gene), yeast cultured two hours with chemical substance, DNA chip fluorescence ratio to control) was 1.1, the “The level of expressed mRNA in the presence of chemical substance/The level of expressed mRNA in the absence of chemical substance, yeast gene YJL180C” value (gene YJL180C (mitochondria-located protein gene), yeast cultured two hours with chemical substance, DNA chip fluorescence ratio to control) was 0.9 and the “The level of expressed mRNA in the presence of chemical substance/The level of expressed mRNA in the absence of chemical substance, yeast gene YKR009C” value (gene YKR009C, Metabolism protein genes, DNA chip fluorescence ratio) was 1.9. The “The level of expressed mRNA in the presence of chemical substance/The level of expressed mRNA in the absence of chemical substance, yeast gene YLR295C” value (gene YLR295C (mitochondria-located protein gene), yeast cultured two hours with chemical substance, DNA chip fluorescence ratio to control) was 0.9, the “The level of expressed mRNA in the presence of chemical substance/The level of expressed mRNA in the absence of chemical substance, yeast gene YLR351C” value (gene YLR351C, Metabolism protein genes, DNA chip fluorescence ratio) was 1.3 and the “The level of expressed mRNA in the presence of chemical substance/The level of expressed mRNA in the absence of chemical substance, yeast gene YLR375W” value (gene YLR375W, Metabolism protein genes, DNA chip fluorescence ratio) was 1.0. For the same compound, the “The level of expressed mRNA in the presence of chemical substance/The level of expressed mRNA in the absence of chemical substance, yeast gene YMR023C” value (gene YMR023C (mitochondria-located protein gene), yeast cultured two hours with chemical substance, DNA chip fluorescence ratio to control) was 1.1, the “The level of expressed mRNA in the presence of chemical substance/The level of expressed mRNA in the absence of chemical substance, yeast gene YMR267W” value (gene YMR267W (mitochondria-located protein gene), yeast cultured two hours with chemical substance, DNA chip fluorescence ratio to control) was 0.9 and the “The level of expressed mRNA in the presence of chemical substance/The level of expressed mRNA in the absence of chemical substance, yeast gene YMR267W” value (gene YMR267W, Metabolism protein genes, DNA chip fluorescence ratio) was 0.9. For the same compound, the “The level of expressed mRNA in the presence of chemical substance/The level of expressed mRNA in the absence of chemical substance, yeast gene YMR278W” value (gene YMR278W, Metabolism protein genes, DNA chip fluorescence ratio) was 1.0, the “The level of expressed mRNA in the presence of chemical substance/The level of expressed mRNA in the absence of chemical substance, yeast gene YMR293C” value (gene YMR293C, Metabolism protein genes, DNA chip fluorescence ratio) was 0.8 and the “The level of expressed mRNA in the presence of chemical substance/The level of expressed mRNA in the absence of chemical substance, yeast gene YNL073W” value (gene YNL073W (mitochondria-located protein gene), yeast cultured two hours with chemical substance, DNA chip fluorescence ratio to control) was 0.8. The “The level of expressed mRNA in the presence of chemical substance/The level of expressed mRNA in the absence of chemical substance, yeast gene YNR072W” value (gene YNR072W, Metabolism protein genes, DNA chip fluorescence ratio) was 1.3, the “The level of expressed mRNA in the presence of chemical substance/The level of expressed mRNA in the absence of chemical substance, yeast gene YOL096C” value (gene YOL096C, Metabolism protein genes, DNA chip fluorescence ratio) was 1.2 and the “The level of expressed mRNA in the presence of chemical substance/The level of expressed mRNA in the absence of chemical substance, yeast gene YOR180C” value (gene YOR180C, Metabolism protein genes, DNA chip fluorescence ratio) was 0.9. The “The level of expressed mRNA in the presence of chemical substance/The level of expressed mRNA in the absence of chemical substance, yeast gene YOR316C” value (gene YOR316C (mitochondria-located protein gene), yeast cultured two hours with chemical substance, DNA chip fluorescence ratio to control) was 0.8, the “The level of expressed mRNA in the presence of chemical substance/The level of expressed mRNA in the absence of chemical substance, yeast gene YOR363C” value (gene YOR363C, Metabolism protein genes, DNA chip fluorescence ratio) was 1.3 and the “The level of expressed mRNA in the presence of chemical substance/The level of expressed mRNA in the absence of chemical substance, yeast gene YPL040C” value (gene YPL040C (mitochondria-located protein gene), yeast cultured two hours with chemical substance, DNA chip fluorescence ratio to control) was 0.8. For the same compound, the “The level of expressed mRNA in the presence of chemical substance/The level of expressed mRNA in the absence of chemical substance, yeast gene YPL134C” value (gene YPL134C (mitochondria-located protein gene), yeast cultured two hours with chemical substance, DNA chip fluorescence ratio to control) was 1.3, the “The level of expressed mRNA in the presence of chemical substance/The level of expressed mRNA in the absence of chemical substance, yeast gene YPR184W” value (gene YPR184W, Metabolism protein genes, DNA chip fluorescence ratio) was 1.0 and the “level of expressed mRNA in the presence of chemical substance / level in the absence of chemical substance” value (yeast gene YAL018C) was 0.9. For the same compound, the “The level of expressed mRNA in the presence of chemical substance/The level of expressed mRNA in the absence of chemical substance” value (yeast gene YAL053W) was 1.2, the “level of expressed mRNA in the presence of chemical substance / level in the absence of chemical substance” value (yeast gene YAR047C) was 1.7 and the “level of expressed mRNA in the presence of chemical substance / level in the absence of chemical substance” value (yeast gene YAR064W) was 0.9. The “level of expressed mRNA in the presence of chemical substance / level in the absence of chemical substance” value (yeast gene YBL044W) was 0.8, the “The level of expressed mRNA in the presence of chemical substance/The level of expressed mRNA in the absence of chemical substance” value (yeast gene YBL048W) was 1.3 and the “The level of expressed mRNA in the presence of chemical substance/The level of expressed mRNA in the absence of chemical substance” value (yeast gene YBL107C) was 0.9. For the same compound, the “level of expressed mRNA in the presence of chemical substance / level in the absence of chemical substance” value (yeast gene YBR012C) was 1.4, the “level of expressed mRNA in the presence of chemical substance / level in the absence of chemical substance” value (yeast gene YBR066C) was 1.2 and the “level of expressed mRNA in the presence of chemical substance / level in the absence of chemical substance” value (yeast gene YBR124W) was 0.9. For the same compound, the “level of expressed mRNA in the presence of chemical substance / level in the absence of chemical substance” value (yeast gene YBR162C) was 1.2, the “level of expressed mRNA in the presence of chemical substance / level in the absence of chemical substance” value (yeast gene YBR287W) was 3.2 and the “level of expressed mRNA in the presence of chemical substance / level in the absence of chemical substance” value (yeast gene YCL042W) was 0.8. The “level of expressed mRNA in the presence of chemical substance / level in the absence of chemical substance” value (yeast gene YCL056C) was 1.2, the “level of expressed mRNA in the presence of chemical substance / level in the absence of chemical substance” value (yeast gene YCR007C) was 2.6 and the “level of expressed mRNA in the presence of chemical substance / level in the absence of chemical substance” value (yeast gene YDL046W) was 1.2. For the same compound, the “The level of expressed mRNA in the presence of chemical substance/The level of expressed mRNA in the absence of chemical substance” value (yeast gene YDL072C) was 1.6, the “The level of expressed mRNA in the presence of chemical substance/The level of expressed mRNA in the absence of chemical substance” value (yeast gene YDL204W) was 1.8 and the “The level of expressed mRNA in the presence of chemical substance/The level of expressed mRNA in the absence of chemical substance” value (yeast gene YDL222C) was 0.9. The “level of expressed mRNA in the presence of chemical substance / level in the absence of chemical substance” value (yeast gene YDR090C) was 1.1.
